According to PubChem BioAssay (NCI):
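A five-concentration, 48-hour dose response in 96-well plates underlies each endpoint, interpolated linearly between surrounding concentrations. Definition used: TGI = concentration required for complete inhibition of growth.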

How the values were obtained:
Test in all cases: NCI anticancer screen, dose series, 48 h
786-0 renal = tested on: 786-0 renal
A498 renal = tested on: A498 renal
A549 NSCLC = tested on: A549 NSCLC
CAKI-1 renal = tested on: CAKI-1 renal
CCRF-CEM leukemia = tested on: CCRF-CEM leukemia
COLO 205 colon = tested on: COLO 205 colon
DLD-1 colon = tested on: DLD-1 colon
DMS 114 small cell lung = tested on: DMS 114 small cell lung
DMS 273 small cell lung = tested on: DMS 273 small cell lung
EKVX NSCLC = tested on: EKVX NSCLC
HCT-15 colon = tested on: HCT-15 colon
HL-60(TB) leukemia = tested on: HL-60(TB) leukemia
HOP-18 NSCLC = tested on: HOP-18 NSCLC
HOP-62 NSCLC = tested on: HOP-62 NSCLC
HOP-92 NSCLC = tested on: HOP-92 NSCLC
HT29 colon = tested on: HT29 colon
IGROV1 ovarian = tested on: IGROV1 ovarian
KM20L2 colon = tested on: KM20L2 colon
LOX IMVI melanoma = tested on: LOX IMVI melanoma
M14 melanoma = tested on: M14 melanoma
M19-MEL melanoma = tested on: M19-MEL melanoma
NCI-H23 lung = tested on: NCI-H23 lung
NCI-H460 lung = tested on: NCI-H460 lung
NCI-H522 lung = tested on: NCI-H522 lung
OVCAR-8 ovarian = tested on: OVCAR-8 ovarian
RPMI-8226 leukemia = tested on: RPMI-8226 leukemia
RXF 393 renal = tested on: RXF 393 renal
SF-268 CNS = tested on: SF-268 CNS
SF-539 CNS = tested on: SF-539 CNS
SK-MEL-28 melanoma = tested on: SK-MEL-28 melanoma
SK-MEL-5 melanoma = tested on: SK-MEL-5 melanoma
SK-OV-3 ovarian = tested on: SK-OV-3 ovarian
SNB-19 CNS = tested on: SNB-19 CNS
SW-620 colon = tested on: SW-620 colon
TK-10 renal = tested on: TK-10 renal
U251 CNS = tested on: U251 CNS
UACC-62 melanoma = tested on: UACC-62 melanoma
UO-31 renal = tested on: UO-31 renal
XF 498 CNS = tested on: XF 498 CNS
ACHN renal = tested on: ACHN renal
HCC-2998 colon = tested on: HCC-2998 colon
HCT-116 colon = tested on: HCT-116 colon
K-562 leukemia = tested on: K-562 leukemia
KM12 colon = tested on: KM12 colon
LXFL 529 NSCLC = tested on: LXFL 529 NSCLC
MALME-3M melanoma = tested on: MALME-3M melanoma
MOLT-4 leukemia = tested on: MOLT-4 leukemia
NCI-H226 lung = tested on: NCI-H226 lung
OVCAR-3 ovarian = tested on: OVCAR-3 ovarian
OVCAR-4 ovarian = tested on: OVCAR-4 ovarian
OVCAR-5 ovarian = tested on: OVCAR-5 ovarian
SF-295 CNS = tested on: SF-295 CNS
SK-MEL-2 melanoma = tested on: SK-MEL-2 melanoma
SN12C renal = tested on: SN12C renal
SNB-75 CNS = tested on: SNB-75 CNS
SNB-78 CNS = tested on: SNB-78 CNS
SR leukemia = tested on: SR leukemia
UACC-257 melanoma = tested on: UACC-257 melanoma

Measured: TGI

Cc1nc2ccccc2c(=O)n1/N=C(\N=Nc1ccccc1Cl)c1ccccc1
60.9 µM: NCI-H522 lung
97.7 µM: M14 melanoma
85.3 µM: RXF 393 renal
41.9 µM: SK-MEL-5 melanoma
47.6 µM: HT29 colon
78.3 µM: EKVX NSCLC
97.9 µM: LOX IMVI melanoma
49.2 µM: COLO 205 colon | RPMI-8226 leukemia
43 µM: CAKI-1 renal
43.1 µM: SF-539 CNS
38.3 µM: HL-60(TB) leukemia
67.2 µM: M19-MEL melanoma
> 100 µM: A498 renal | A549 NSCLC | DLD-1 colon | DMS 273 small cell lung | HCT-15 colon | HOP-18 NSCLC | HOP-62 NSCLC | HOP-92 NSCLC | NCI-H23 lung | NCI-H460 lung | OVCAR-8 ovarian | SF-268 CNS | SK-MEL-28 melanoma | SK-OV-3 ovarian | SNB-19 CNS | TK-10 renal | U251 CNS | UO-31 renal
55.2 µM: CCRF-CEM leukemia
38.9 µM: IGROV1 ovarian
37.8 µM: DMS 114 small cell lung
48.7 µM: KM20L2 colon
45.7 µM: XF 498 CNS
46.6 µM: UACC-62 melanoma
36.7 µM: 786-0 renal
63.9 µM: SW-620 colon

Cc1nnc2n1N=C(c1ccc(-c3ccc([N+](=O)[O-])cc3)o1)CS2
> 100 µM: 786-0 renal | A549 NSCLC | ACHN renal | CAKI-1 renal | COLO 205 colon | DLD-1 colon | DMS 273 small cell lung | HCC-2998 colon | HCT-116 colon | HCT-15 colon | HL-60(TB) leukemia | HOP-62 NSCLC | HOP-92 NSCLC | IGROV1 ovarian | K-562 leukemia | KM12 colon | KM20L2 colon | LOX IMVI melanoma | LXFL 529 NSCLC | M14 melanoma | M19-MEL melanoma | MALME-3M melanoma | MOLT-4 leukemia | NCI-H226 lung | NCI-H23 lung | NCI-H460 lung | NCI-H522 lung | OVCAR-3 ovarian | OVCAR-4 ovarian | OVCAR-5 ovarian | OVCAR-8 ovarian | RPMI-8226 leukemia | SF-268 CNS | SF-295 CNS | SF-539 CNS | SK-MEL-2 melanoma | SK-MEL-28 melanoma | SK-OV-3 ovarian | SN12C renal | SNB-19 CNS | SNB-75 CNS | SNB-78 CNS | SR leukemia | SW-620 colon | TK-10 renal | U251 CNS | UACC-257 melanoma | UACC-62 melanoma | UO-31 renal
